In the assay the test system is adenylate cyclase. In words: cAMP assay of cryopreserved AD293 cells, forskolin stimulation. It is filed as cell-based, human. The source says: As a control, rise in intracellular cAMP concentrations was also separately monitored when the ubiquitously expressed adenylate cyclase activity was challenged with its respective agonist forskolin. In the AD293 cell line only the adenylate cyclase activity was monitored.
As the DiscoveRx assay systems are designed to monitor intracellular cAMP concentrations the assay medium is supplemented with the general phosphodiesterase inhibitor isobutylmethylxanthine (IBMX) at a final concentration of 1 mM.
Forskolin assay—Forskolin (Sigma F6886-10 mg) was dissolved in DMSO to a stock concentration of 10 mM. This was then serially diluted using half-log dilutions to generate a final forskolin concentration range in the assay medium ranging from 316 μM-3.16 nM.
DiscoveRx HITHUNTER™ cAMP II assay—This was performed according to the manufacturer's instructions and briefly involved the following. On resurrection from storage at −140° C., cells frozen on cell culture treated 96-well plates were allowed to thaw. On defrosting the cryopreservation medium was removed and the cells washed twice with PBS. […]
Typically for an assay performed in a 96-well cell culture treated plate 20,000 cells were used. […] The assay plates were incubated at room temperature for 4 hrs and the cAMP concentration determined by monitoring the generation of the luminescent signal using the LEADSEEKER™ Instrument platform.

As for `C=C[C@@]1(C)CC(=O)[C@]2(O)[C@@]3(C)[C@@H](O)CCC(C)(C)[C@@H]3[C@H](O)[C@H](OC(C)=O)[C@@]2(C)O1` [forskolin, Forskolin], the “S:B” value is reported as 2.5 (minus poly lysine) and 3.0 (plus poly-lysine).

The values are drawn from patent US20110250632A1 (priority 2008, published 2011).
